# pIC50: −log10 of the molar value.
# Columns and labels:
# Assay type in all cases: cell-based
# human TLR8 = target: T1, human TLR8 (Homo sapiens, UniProt Q9NR97); assay: TLR8 inhibition reporter assay (HEK-Blue cells, SEAP reporter, R848 stimulation); conditions: HEK-Blue cells overexpressing human TLR8, SEAP reporter, R848 15.9 μM
# T1 construct: host or cells: HEK-Blue cells (HEK293-derived reporter line)
# T1 sequence (Q9NR97 27-1041): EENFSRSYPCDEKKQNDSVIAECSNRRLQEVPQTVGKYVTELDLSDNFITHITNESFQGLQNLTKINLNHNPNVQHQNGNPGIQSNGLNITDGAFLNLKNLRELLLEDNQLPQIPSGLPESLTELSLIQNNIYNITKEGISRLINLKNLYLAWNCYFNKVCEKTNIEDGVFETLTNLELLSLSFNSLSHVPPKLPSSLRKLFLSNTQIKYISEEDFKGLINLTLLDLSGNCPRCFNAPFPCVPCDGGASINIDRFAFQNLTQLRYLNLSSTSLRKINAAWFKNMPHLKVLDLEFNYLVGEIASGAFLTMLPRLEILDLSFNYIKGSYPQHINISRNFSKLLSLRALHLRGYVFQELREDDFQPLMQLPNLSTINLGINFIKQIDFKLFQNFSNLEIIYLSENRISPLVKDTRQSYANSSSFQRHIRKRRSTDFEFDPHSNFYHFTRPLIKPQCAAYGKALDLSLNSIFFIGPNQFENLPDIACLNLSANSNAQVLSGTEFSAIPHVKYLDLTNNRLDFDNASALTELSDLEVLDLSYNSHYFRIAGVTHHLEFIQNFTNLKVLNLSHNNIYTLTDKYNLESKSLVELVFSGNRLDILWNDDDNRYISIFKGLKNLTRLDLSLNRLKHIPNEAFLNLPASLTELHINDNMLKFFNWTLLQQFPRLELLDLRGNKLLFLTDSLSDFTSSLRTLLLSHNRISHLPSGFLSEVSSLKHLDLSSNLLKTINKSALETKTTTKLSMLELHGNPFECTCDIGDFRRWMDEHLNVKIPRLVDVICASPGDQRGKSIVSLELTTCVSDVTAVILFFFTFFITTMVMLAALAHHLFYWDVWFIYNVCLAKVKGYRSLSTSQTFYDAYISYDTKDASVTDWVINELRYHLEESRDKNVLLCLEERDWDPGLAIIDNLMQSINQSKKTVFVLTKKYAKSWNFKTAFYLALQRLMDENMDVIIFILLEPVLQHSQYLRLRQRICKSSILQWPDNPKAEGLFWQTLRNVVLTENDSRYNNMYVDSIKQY
# Outline: (§1)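 Cells seeded per well (15000 TLR7, 20,000 TLR8, 25,000 TLR9); compound added over 0.05 nM–50 μM for 30 min at room temperature; agonist added (TLR7 gardiquimod 7.5 μM, TLR8 R848 15.9 μM, TLR9 ODN2006 5 nM); 22 h at 37 °C; SEAP measured; percent inhibition calculated.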
# human TLR9 = target: T2, human TLR9 (Homo sapiens, UniProt Q9NR96); assay: TLR9 inhibition reporter assay (HEK-Blue cells, SEAP reporter, ODN2006 stimulation); conditions: HEK-Blue cells overexpressing human TLR9, SEAP reporter, ODN2006 5 nM
# T2 construct: host or cells: HEK-Blue cells (HEK293-derived reporter line)
# T2 sequence (Q9NR96 26-1032): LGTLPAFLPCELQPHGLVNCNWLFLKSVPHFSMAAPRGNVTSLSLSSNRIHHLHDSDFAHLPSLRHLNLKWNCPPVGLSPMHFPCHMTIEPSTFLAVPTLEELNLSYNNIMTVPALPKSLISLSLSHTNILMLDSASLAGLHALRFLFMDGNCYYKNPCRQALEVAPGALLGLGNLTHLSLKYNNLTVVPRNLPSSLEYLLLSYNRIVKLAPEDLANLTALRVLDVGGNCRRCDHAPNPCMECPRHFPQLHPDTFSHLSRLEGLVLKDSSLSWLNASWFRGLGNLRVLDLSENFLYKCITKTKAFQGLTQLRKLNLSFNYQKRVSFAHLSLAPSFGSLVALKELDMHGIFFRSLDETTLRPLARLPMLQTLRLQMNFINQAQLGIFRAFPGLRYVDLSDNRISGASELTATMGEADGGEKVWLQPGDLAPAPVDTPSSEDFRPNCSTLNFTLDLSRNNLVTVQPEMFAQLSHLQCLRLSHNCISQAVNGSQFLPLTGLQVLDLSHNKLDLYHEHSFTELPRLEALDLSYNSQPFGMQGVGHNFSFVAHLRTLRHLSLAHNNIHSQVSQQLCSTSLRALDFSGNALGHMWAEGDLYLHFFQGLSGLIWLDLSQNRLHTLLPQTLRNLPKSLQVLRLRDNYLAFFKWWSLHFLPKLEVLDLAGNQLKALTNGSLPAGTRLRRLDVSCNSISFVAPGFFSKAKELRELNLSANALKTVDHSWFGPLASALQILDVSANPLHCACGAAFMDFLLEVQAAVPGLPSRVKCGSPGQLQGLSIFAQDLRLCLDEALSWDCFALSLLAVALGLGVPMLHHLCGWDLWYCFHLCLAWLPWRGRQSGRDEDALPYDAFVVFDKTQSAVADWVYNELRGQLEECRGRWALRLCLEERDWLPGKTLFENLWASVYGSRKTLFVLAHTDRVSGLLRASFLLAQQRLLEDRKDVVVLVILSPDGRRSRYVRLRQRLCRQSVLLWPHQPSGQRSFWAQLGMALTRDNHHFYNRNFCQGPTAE
# Outline: as §1
# human TLR7 = target: T3, human TLR7 (Homo sapiens, UniProt Q9NYK1); assay: TLR7 inhibition reporter assay (HEK-Blue cells, SEAP reporter, gardiquimod stimulation); conditions: HEK-Blue cells overexpressing human TLR7, SEAP reporter, gardiquimod 7.5 μM
# T3 construct: host or cells: HEK-Blue cells (HEK293-derived reporter line)
# T3 sequence (Q9NYK1 27-1049): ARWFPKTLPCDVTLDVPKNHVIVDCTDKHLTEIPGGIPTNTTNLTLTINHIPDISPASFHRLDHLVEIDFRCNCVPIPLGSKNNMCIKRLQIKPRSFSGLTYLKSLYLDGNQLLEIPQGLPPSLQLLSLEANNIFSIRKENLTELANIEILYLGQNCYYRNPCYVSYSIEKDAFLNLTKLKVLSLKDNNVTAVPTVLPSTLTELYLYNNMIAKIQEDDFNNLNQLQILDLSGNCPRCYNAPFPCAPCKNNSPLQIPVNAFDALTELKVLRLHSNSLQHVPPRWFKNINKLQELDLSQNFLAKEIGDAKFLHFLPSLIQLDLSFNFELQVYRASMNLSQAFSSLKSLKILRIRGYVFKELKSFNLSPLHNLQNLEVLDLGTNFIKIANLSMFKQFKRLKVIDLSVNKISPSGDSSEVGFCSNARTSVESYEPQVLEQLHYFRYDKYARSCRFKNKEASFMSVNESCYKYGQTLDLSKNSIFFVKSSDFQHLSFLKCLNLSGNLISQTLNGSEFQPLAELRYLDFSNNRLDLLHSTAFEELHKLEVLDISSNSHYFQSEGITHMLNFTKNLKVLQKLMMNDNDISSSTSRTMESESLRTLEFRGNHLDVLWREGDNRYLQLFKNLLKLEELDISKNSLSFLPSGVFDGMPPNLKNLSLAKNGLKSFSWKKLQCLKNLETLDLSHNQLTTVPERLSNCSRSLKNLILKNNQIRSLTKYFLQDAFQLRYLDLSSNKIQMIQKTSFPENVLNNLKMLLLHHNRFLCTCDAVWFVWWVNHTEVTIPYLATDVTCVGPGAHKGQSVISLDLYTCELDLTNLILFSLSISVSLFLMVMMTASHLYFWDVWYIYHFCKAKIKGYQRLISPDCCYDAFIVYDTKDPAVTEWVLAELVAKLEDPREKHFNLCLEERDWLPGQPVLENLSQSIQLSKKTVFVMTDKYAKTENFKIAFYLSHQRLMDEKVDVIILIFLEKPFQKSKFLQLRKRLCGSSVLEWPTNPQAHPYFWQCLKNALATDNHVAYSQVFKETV
# Outline: as §1
pIC50 (human TLR8),pIC50 (human TLR9),pIC50 (human TLR7),SMILES
> 7.00,4.30 to 6.00,> 7.00,"COc1cc(-c2[nH]c3ccc(C4CCN(C(=O)CN(C)C)CC4)cc3c2C(C)C)cc2ncnn12 [Example 532, 2-(dimethylamino)-1-(4-(3-isopropyl-2-(5-methoxy-[1,2,4]triazolo[1,5-a]pyridin-7-yl)-1H-indol-5-yl)piperidin-1-yl)ethan-1-one]"
> 7.00,4.30 to 6.00,> 7.00,"Cc1cc(-c2[nH]c3ccc(C4CCN(C(=O)CN(C)C)CC4)cc3c2C(C)C)nc2scnc12 [Example 543, 2-(dimethylamino)-1-(4-(3-isopropyl-2-(7-methylthiazolo[5,4-b]pyridin-5-yl)-1H-indol-5-yl)piperidin-1-yl)ethan-1-one]"
< 5.51,4.30 to 6.00,> 7.00,"Cc1cn2cc(-c3[nH]c4ccc(C5CCN(C(=O)CC(C)O)CC5)cc4c3C(C)C)c(C)cc2n1 (stereo not drawn) [Example 596, 1-(4-(2-(2,7-dimethylimidazo[1,2-a]pyridin-6-yl)-3-isopropyl-1H-indol-5-yl)piperidin-1-yl)-3-hydroxybutan-1-one]"
> 7.00,> 7.00,> 7.00,"CCN1CCC(N2CCC(c3ccc4[nH]c(-c5ccnc6[nH]ccc56)c(C)c4c3)CC2)CC1 [Example 811, 4-(5-(1′-ethyl-[1,4′-bipiperidin]-4-yl)-3-methyl-1H-indol-2-yl)-1H-pyrrolo[2,3-b]pyridine]"
> 7.00,4.30 to 6.00,> 7.00,"CC(C)c1c(-c2cn(C)c3ncncc23)[nH]c2ccc(C3CCN(C(=O)CN(C)C)CC3)cc12 [Example 456, 2-(dimethylamino)-1-(4-(3-isopropyl-2-(7-methyl-7H-pyrrolo[2,3-d]pyrimidin-5-yl)-1H-indol-5-yl)piperidin-1-yl)ethan-1-one]"
> 7.00,6.00 to 7.00,6.00 to 7.00,"CC(C)c1c(-c2ccnc3[nH]ncc23)[nH]c2ccc(C3CCN(Cc4ccccc4OCCCN(C)C)CC3)cc12 [Example 921, 3-(2-((4-(3-isopropyl-2-(1H-pyrazolo[3,4-b]pyridin-4-yl)-1H-indol-5-yl)piperidin-1-yl)methyl)phenoxy)-N,N-dimethylpropan-1-amine]"

# Continued, compound first:
SMILES,pIC50 (human TLR8),pIC50 (human TLR9),pIC50 (human TLR7)
"CNC(=O)CN1CCC(c2ccc3[nH]c(-c4ccc(C)n5ncnc45)c(C(C)C)c3c2)CC1 [Example 386, 2-(4-(3-isopropyl-2-(5-methyl-[1,2,4]triazolo[1,5-a]pyridin-8-yl)-1H-indol-5-yl)piperidin-1-yl)-N-methylacetamide]",6.00 to 7.00,4.30 to 6.00,> 7.00
"CNC(=O)CN1CCC(c2ccc3[nH]c(-c4cc(C)c5ncccc5c4)c(C(C)C)c3c2)CC1 [Example 437, 2-(4-(3-isopropyl-2-(8-methylquinolin-6-yl)-1H-indol-5-yl)piperidin-1-yl)-N-methylacetamide]",> 7.00,4.30 to 6.00,> 7.00
"CC(C)c1c(-c2ccn3nncc3c2)[nH]c2ccc(C3CCNCC3)cc12 [Example 81, 5-(3-isopropyl-5-(piperidin-4-yl)-1H-indol-2-yl)-[1,2,3]triazolo[1,5-a]pyridine]",6.00 to 7.00,4.30 to 6.00,> 7.00
"COc1cc(-c2[nH]c3ccc(C4CCNCC4)cc3c2C(C)C)cn2ccnc12 [Example 125, 6-(3-isopropyl-5-(piperidin-4-yl)-1H-indol-2-yl)-8-methoxyimidazo[1,2-a]pyridine]",> 7.00,6.00 to 7.00,> 7.00
"Cc1cc(-c2[nH]c3ccc(C4CCNCC4)cc3c2C(C)C)cn2cc(C(=O)NCC(C)(C)O)nc12 [Example 270, N-(2-hydroxy-2-methylpropyl)-6-(3-isopropyl-5-(piperidin-4-yl)-1H-indol-2-yl)-8-methylimidazo[1,2-a]pyridine-2-carboxamide]",6.00 to 7.00,4.30 to 6.00,6.00 to 7.00
"CC(C)c1c(-c2ccnc3[nH]ncc23)[nH]c2ccc(C3CCNCC3)c(F)c12 [Example 259, 4-(4-fluoro-3-isopropyl-5-(piperidin-4-yl)-1H-indol-2-yl)-1H-pyrazolo[3,4-b]pyridine]",> 7.00,6.00 to 7.00,> 7.00
"Cc1cc(-c2[nH]c3ccc(C4CCNCC4)cc3c2C(C)C)cn2cc(C(=O)NC3CC3)nc12 [Example 262, N-cyclopropyl-6-(3-isopropyl-5-(piperidin-4-yl)-1H-indol-2-yl)-8-methylimidazo[1,2-a]pyridine-2-carboxamide]",> 7.00,6.00 to 7.00,> 7.00
"CC(C)c1c(-c2cn(C)c3ncccc23)[nH]c2ccc(C3CCNCC3)cc12 [Example 48, 3-(3-isopropyl-5-(piperidin-4-yl)-1H-indol-2-yl)-1-methyl-1H-pyrrolo[2,3-b]pyridine]",> 7.00,4.30 to 6.00,> 7.00

# Reference: US11739098B2 (BRISTOL-MYERS SQUIBB COMPANY, priority 2017, dated 2023)
